Laboratory results: US20130303788A1, “METHOD OF PRODUCING BIPHENOLIC COMPOUND, NOVEL BIPHENYL COMPOUND AND SYNTHESIS METHOD THEREOF, AND PHARMACEUTICAL COMPOSITION FOR TREATING PARKINSON'S DISEASE” (Tzu Chi University, priority 2012, published 2013)

What was measured:
[1] = test system: TH (Tyrosine Hydroxylase); assay: TH expression level (TH immunohistochemistry) in 6-OHDA mouse model of PD; assay type: in vivo, NMRI mice
Description: The respective NMRI mouse was deeply anaesthetized with thiopental (50 mg/kg, intraperitoneally). The respective NMRI mouse was perfused transcardially with a heparin solution (0.05% heparin in 0.1 M PBS), and was subsequently perfused with 100 mL of ice-cold fixative (4% paraformaldehyde in 0.1 M PBS). The brain of the respective NMRI mouse was removed and was postfixed in the same ice-cold fixative for 12 hours, followed by dehydration in 30% sucrose in 0.1 M PBS. The brain was frozen and was subjected to tissue slicing. Serial coronal sections (a thickness of 20 μm) were cut on a freezing microtome and were placed in PBS. The sections were later processed for free-floating TH or iNOS immunohistochemistry.
The sections were rinsed three times with PBS (30 minutes for each time), were treated with 3% H2O2/10% methanol in PBS for 30 minutes for quenching the endogenous peroxidase activity, and were rinsed three times with PBS. After preincubation with 0.5% normal goat serum (NGS)/0.2% Triton in PBS, the sections were incubated with a primary antibody (anti-TH antibody or anti-iNOS antibody, 1:5000, Novus Biologicals, Inc., Littleton, Colo., USA) in 0.5% NGS/PBS at 4° C. for 16-18 hours. After being rinsed three times with PBS, the sections were incubated with a biotinylated goat anti-rabbit IgG (1:200) in PBS for 1 hour. Subsequently, the sections were rinsed three times with PBS and were stained with 0.05% diaminobenzidine/0.03% H2O2 in PBS for 5 minutes. The respective section was placed on a gelatin-coated slide, dehydrated through ascending concentrations of alcohol, and covered with a slipcover for observation under a light microscope.
The obtained data were subjected to the statistical analysis as described in section 5 of General Procedures. TH expression level in the striatum was determined according to the method as described in section 4 of General Procedures.
TH expression level in the striatum and the substantia nigra (SN), and iNOS expression level in the striatum were determined according to the method as described in section 4 of General Procedures on Day 21 after the injection of 6-OHDA or the vehicle.
In addition, the optical density regarding the lesioned and unlesioned sites in the striatum and SN of the NMRI mice (e.g., the sham operated control, the pathological control, and the NMRI mice treated with product 1) was determined from the obtained photomicrographs illustrating TH expression level via ImageJ software (National Institutes of Health). The relative optical density was calculated using the following formula:
where J=relative optical density • K=optical density of the lesioned site • L=optical density of the unlesioned site

[2] = test system: mouse model of PD (6-OHDA unilateral striatal lesion); assay: Apomorphine-induced rotation test in 6-OHDA mouse model of PD; assay type: in vivo, NMRI mice
Description: The respective NMRI mouse was anesthetized with ketamine ([…], intraperitoneally). Subsequently, the respective NMRI mouse was placed into a stereotactic frame with nose and ear bars specially designed for mice. 6-hydroxydopamine (6-OHDA) was injected with saline containing 0.02% ascorbic acid (as a vehicle) into the right striatum of the respective NMRI mouse so that unilateral striatal lesion was induced (i.e., damage to dopaminergic neurons in the unilateral striatum was induced). The injection was conducted at a rate of 1 μL/minute using a Hamilton syringe at the following coordinates: AP: −0.9 mm; ML: −1.9 mm; DV: −2.2 mm with respect to bregma, and a final dose of 15 μg was administered. The needle was left standing for 5 minutes after the injection was finished, and was slowly withdrawn.
The respective NMRI mouse was allowed to habituate to the ambient environment for 10 minutes before the apomorphine-induced rotation test was performed. Apomorphine was then injected intraperitoneally into the respective NMRI mouse at a dose of 0.5 mg/kg. The respective NMRI mouse was placed in a glass bowl with a diameter of 20 cm and was attached to an automatic rotometer (TSE, Bad Homburg, Germany) via a specially designed harness. Each circular movement exceeding 30° was recorded. The contralateral movements (toward the nonlesioned side) and ipsilateral movements (toward the lesioned side) of the NMRI mice were counted during a period of 60 minutes. The net rotation was calculated according to the following formula:
where A=net rotation • B=the total number of ipsilateral movements during the period of 60 minutes • C=the total number of contralateral movements during the period of 60 minutes 4. Determination of TH (Tyrosine Hydroxylase) Expression Level and iNOS (Inducible Nitric Oxide Synthase) Expression Level: […]
6-OHDA was injected into NMRI mice according to the method as described in section 2 of General procedures. Product 1 or product 2 was administered intraperitoneally to the respective NMRI mouse at a dose of 5 mg/kg, 1 mg/kg, 0.5 mg/kg, 0.1 mg/kg, or 0.05 mg/kg for 14 consecutive days, starting on Day 7 after the 6-OHDA injection. NMRI mice into which a vehicle (saline containing 0.02% ascorbic acid) was injected (generally according to the method as described in section 2 of General Procedures, except that 6-OHDA was not injected), and which were not treated with product 1 or product 2 after the injection of the vehicle, served as a sham operated control. NMRI mice into which 6-OHDA was injected and which were not treated with product 1 or product 2 after the 6-OHDA injection served as a pathological control. The rotational behavior of the NMRI mice was evaluated using the apomorphine-induced rotation test as described in section 3 of General Procedures on Days 7, 14, and 21 after the 6-OHDA injection.

## C=CCc1ccc(O)c(-c2ccc(O)c(CC=C)c2)c1 [product 1, 5,3′-Diallyl-biphenyl-2,4′-diol]
[1]; 5 mg/kg i.p. for 14 consecutive days after 6-OHDA injection, FIG. 12
  TH expression level in right (lesioned) striatum vs pathological control, subchronic treatment: significantly higher TH expression level
[1]; i.p. 14 consecutive days starting Day 7, Day 21 after 6-OHDA, FIGS. 14, 15(A), 16
  loss of TH-ir fibers in the striatum, subchronic post-treatment: significantly alleviated the loss of TH-ir fibers
[1]; i.p. 14 consecutive days starting Day 7, Day 21 after 6-OHDA, FIGS. 14, 15(B), 16
  loss of TH-ir fibers in the substantia nigra (SN), subchronic post-treatment: significantly alleviated the loss of TH-ir fibers
[2]; 0.1 mg/kg i.p., 14 consecutive days starting Day 7 after 6-OHDA, FIG. 13
  unilateral rotations (apomorphine-induced), subchronic post-treatment, 0.1 mg/kg: not a low dose of product 1
[2]; 0.5 mg/kg i.p., 14 consecutive days starting Day 7 after 6-OHDA, FIG. 13
  unilateral rotations (apomorphine-induced), subchronic post-treatment, 0.5 mg/kg: significantly inhibited unilateral rotations
[2]; 1 mg/kg i.p., 14 consecutive days starting Day 7 after 6-OHDA, FIG. 13
  unilateral rotations (apomorphine-induced), subchronic post-treatment, 1 mg/kg: significantly inhibited unilateral rotations
[2]; 5 mg/kg or 10 mg/kg i.p. for 14 consecutive days after 6-OHDA injection, FIG. 11
  contralateral movements induced by apomorphine, subchronic treatment: significantly reduced the contralateral movements induced by apomorphine
[2]; 5 mg/kg or 10 mg/kg i.p. once, 30 minutes before 6-OHDA, tested one week after 6-OHDA, data not shown
  apomorphine-induced rotation behavior after single administration: did not prevent the apomorphine-induced rotation behavior
